What was measured:
[1] = Pharmacokinetics in female rats; type: in vivo, rat; conditions: for FR Fp.o.: 20 mg/kg as 10 mg/ml solution in 10% DMSO 10% cremophor 80% saline, AUCp.o./AUCi.v.; for Tmax: rat, plasma, po, dose and vehicle per footnote, read-out: FR Tmax hr
Experimental: Rats (male or female, 200-225 g) are prepared with indwelling jugular vein cannula as described by Harms et al., Applied Physiol. 36:391-398 (1974), and allowed to recover overnight with free access to the standard vivarium chow and water. […] […] The blood samples are withdrawn at specific times, plasma is immediately separated and compound extracted with ethyl acetate. The samples are analyzed by LC-MS using 30-90% gradient of ACN in 50 mM ammonium acetate.
(§1) The pharmacokinetic parameters are calculated using WinNonlin software (Scientific Consulting Inc.). The bioavailability is calculated as AUCp.o./AUCi.v., where AUCp.o. and AUCi.v. are areas under the plasma concentration-time curve after oral and i.v. administration, respectively.

[2] = Pharmacokinetics in male rats; type: in vivo, rat; conditions: for M T1/ hr: male rats (MR); for M T1/ hr / Tmax: dosed orally at 50 mg/kg; for M Fp. / Tmax: male rats; for M Fp.: oral bioavailability, AUCp.o./AUCi.v.; for Tmax: rat, plasma, po, read-out: MR Tmax hr
Experimental: Rats (male or female, 200-225 g) are prepared with indwelling jugular vein cannula as described by Harms et al., Applied Physiol. 36:391-398 (1974), and allowed to recover overnight with free access to the standard vivarium chow and water. The compounds are administered to female rats at 5 mg/kg i.v. and 10 mg/kg p.o. as solutions in 10% DMSO+10% cremophor+80% saline or 10% cremophor+90% saline. The male rats are dosed orally at 50 mg/kg in the vehicles specified in Table 3. The blood samples are withdrawn at specific times, plasma is immediately separated and compound extracted with ethyl acetate. The samples are analyzed by LC-MS using 30-90% gradient of ACN in 50 mM ammonium acetate.
as §1

[3] = target: T1, mouse GnRH receptors (Mus musculus, UniProt Q01776); assay: Radioligand binding assay: inhibition of binding of 125I-GnRH-A to GnRH receptors (membranes); conditions: Mouse GnRH receptor; competition with 125I-GnRH-A; Ki calculated from IC50 (Cheng et al.)
T1 construct: expressed in transfected cells; host or cells: HEK 293
T1 sequence (Q01776 1-327): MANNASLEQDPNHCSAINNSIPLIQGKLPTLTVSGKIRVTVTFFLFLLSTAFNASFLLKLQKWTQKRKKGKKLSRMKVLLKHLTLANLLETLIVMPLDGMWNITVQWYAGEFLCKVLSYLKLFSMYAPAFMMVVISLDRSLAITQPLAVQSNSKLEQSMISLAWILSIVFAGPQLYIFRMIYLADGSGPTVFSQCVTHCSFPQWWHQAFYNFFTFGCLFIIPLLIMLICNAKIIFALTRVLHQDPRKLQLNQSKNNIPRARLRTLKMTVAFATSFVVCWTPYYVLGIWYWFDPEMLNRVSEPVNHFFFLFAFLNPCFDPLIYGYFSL
Procedure, shortened: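 Membranes from HEK 293 expressing mouse or human receptor, or rat pituitaries, incubated 1 h at RT with ~0.04–0.06 nM ¹²⁵I-[des-Gly¹⁰,D-Ala⁶]GnRH ethylamide and competitor (0.1–10,000 nM) in HEPES pH 7.4 with MgCl2, EDTA, BSA. Filtration onto PEI-soaked GF/C filters, scintillation counting; Ki from IC50 by Cheng–Prusoff.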

SMILES	FR Fp.o. [1] [%^1]	Tmax [1] [h]	M T1/ hr [2] [h]	M Fp. [2] [%]	Tmax [2] [h]	Ki [3] [nM]
Cc1cc2c(cc1Cc1ccc(C(=O)NNc3cc(C)c4c(C)nn(C)c4n3)o1)C(C)(C)CCC2(C)C [Example C1, 5-[(3,5,5,8,8-Pentamethyl-5,6,7,8-tetrahydro-2-naphthalenyl)methyl]-N′-(1,3,4-trimethyl-1H-pyrazolo[3,4-b]pyridin-6yl)-2-furohydrazide]	19	1	1.3	1	1	7
COc1cc2c(cc1Cc1ccc(C(=O)NNc3cc(C)c4c(C)nn(C)c4n3)o1)C(C)(C)CCC2(C)C [Example C2, 5-[(3-Methoxy-5,5,8,8-tetramethyl-5,6,7,8-tetrahydro-2-naphthalenyl)methyl]-N′-(1,3,4-trimethyl-1H-pyrazolo[3,4-b]pyridin-6-yl)-2-furohydrazide]	15	2	1.2	4	1	23
